Source: patent US20260355184A1, “SMALL MOLECULE DEGRADERS OF HIV-1 TAT PROTEIN” (priority 2022, published 2026)

Legend:
OM10.1 cells = assay: Cell-associated HIV Gag mRNA expression / HIV transcription in latently infected OM10.1 cells; type: cell-based; conditions: 12-day treatment with ARVs
Protocol: Next, the activity of these leads against HIV infection was evaluated using the reporter cell line HeLa-CD4-LTR-LacZ, which stably expresses the β-galactosidase (β-Gal) gene under the control of the HIV 5′ LTR. The HIV NL4.3 strain was used for these studies and β-Gal activity was measured 72 hrs post infection (FIG. 3A). Cytotoxicity assays using Cell-Titer-Glo were performed in parallel to assess cell viability (FIG. 3A). […] Their anti-HIV activity was further assessed in acute replication of Jurkat T cells with the NL4.3 strain (FIG. 3A). […] These OM10.1 cells contain a single integrated wild-type provirus, while ACH-2 cells contain a single integrated provirus with a TAR mutation C37T, defective Tat-TAR feedback loop (FIG. 3B).

HIV = conditions: combined with ART; CD4+ T cells from infected individuals and humanized mouse model; cited from earlier work
[1] = tested on: TAR (Flag-Tat-Rev fusion protein); assay: Flag-Tat-Rev fusion protein transactivation via TAR; type: cell-based, HIV-1; conditions: TAR reporter

CN(C)[C@H]1C[C@@]23CC[C@@]4(O2)C(=CC[C@]2(C)C(c5ccc6ccncc6c5)=CC[C@H]24)C=C3[C@@H](O)[C@@H]1O [dCA, didehydro-Cortistatin A, reference compound]
Gag mRNA / HIV transcription (in words) (OM10.1 cells): only inhibited transcription in OM10.1 cells
transcription and viral rebound with ART (HIV): inhibits transcription and blocks viral rebound upon treatment interruption
Flag-Tat-Rev / TAR [1]: interfered with the Flag-Tat-Rev to TAR binding
